Experimental data from a melting point compilation (Tetko et al.; mined from patent text by program, amines drawn as free bases though some values may be those of a salt).

| Structure (SMILES) | melting point [°C] |
| --- | --- |
| CN(C)c1ncc(-c2cccc(Nc3ccc(-c4ccoc4)cc3[N+](=O)[O-])c2)cn1 | 181 to 182 |
| OCc1ccc(C2=C(C3CCCC3)CCC2=NO)cc1 | 187 to 190 |
| Cc1ccc2c(c1)CC1(CCC(=O)CC1)C2 | 68 to 70 |
| Cc1cc(F)c(Cl)cc1[N+](=O)[O-] | 57 to 58 |
| CN(C)CCNc1ccnc2cc3c(cc12)OCO3 | 193 to 194 |
| CS(=O)(=O)N(c1ccc(C#CCCN2CC=C(c3ccccc3)CC2)nc1)S(C)(=O)=O | 168 to 170 |
| Nc1cc(I)c(I)cc1[N+](=O)[O-] | 196 to 197 |
| COC(=O)c1csc2nc(N)sc12 | 221 to 223 |
| Fc1ccc(-c2ccco2)cc1 | 84 to 86 |
| COCC(C)(C)Cc1cc(N(C)C)ccn1 | 56 to 58 |
| CCOC(=O)C(=O)Nc1cc(Cl)c(Cl)c(Cl)c1[N+](=O)[O-] | 84 |
| CCCCCCCCS(=O)(=O)NCCC(=O)O | 122 |
| Fc1ccc(-c2ncn(C3CCNCC3)c2-c2ccnc(Oc3ccc(OCc4ccccc4)cc3)n2)cc1 | 178 to 179 |
| O=[N+]([O-])c1c[nH]c(-c2c(Cl)cc(C(F)(F)F)cc2Cl)n1 | 254 to 255 |
| O=[N+]([O-])c1ccc(C=Cc2ccc(Cl)c(Cl)c2)cc1O | 105 to 106 |
| Cc1ccc(-c2nnc(S)nc2-c2ccc(C)cc2)cc1 | 220 to 223 |
| Cc1c[nH]c2c(Sc3nc4cc(Cl)ccc4[nH]3)ccc([N+](=O)[O-])c12 | 252 to 253 |
| Cc1oc(-c2ccccc2)nc1COc1ccc(CON=C(CCCCCCCC(=O)O)c2ccccc2)cc1 | 67 to 68 |
| CCCCNC(=O)C1(c2ccccc2)CCN(C)CC1 | 73 to 76.5 |
| O=C(C(=C1NCCCS1)[N+](=O)[O-])c1ccc([N+](=O)[O-])cc1 | 158 to 160 |
| CSc1nc(Cl)c(I)c(C(F)(F)F)n1 | 55 to 56 |

| Structure (SMILES) | melting point [°C] |
| --- | --- |
| Cc1cccnc1-n1ccnc1S(=O)Cc1ccccc1N (stereo unspecified) | 112 to 114 |
| N#Cc1nn(-c2c(Cl)cc(C(F)(F)F)cc2Cl)c(N)c1-c1ccccc1F | 197 |
| C=CCOc1cnc(SC)nc1 | 41 to 42 |
| CN(C)C1CCc2[nH]c3ccccc3c2C1 (stereo unspecified) | 138 |
| Nc1ccn([C@@H]2O[C@H](CO)[C@@H](O)/C2=C\F)c(=O)n1 | 166 |
| CCCCCCCCC(SCCCC)C(=O)Nc1cccc2cnccc12 (stereo unspecified) | 73 to 75 |
| CCC(=NO)c1ccc(OCCCCCCCc2cc(C)no2)cc1 | 88 to 89 |
| CC(=O)C(=Cc1cccnc1)C(C)=O | 52 to 57 |
| CCOC(=O)C=Cc1ccc(OC)c(OC)c1 | 53 to 55 |
| CCCCCCCCCCCCCCCCOCCC(O)CO (stereo unspecified) | 60 to 61 |
| COc1cc(Cc2cnc(N)nc2N)c2c(c1OC)OC(C)CC2O (stereo unspecified) | 201 to 203 |
| CCCC(=O)O[C@H]1[C@H](OCc2ccccc2)[C@@H](OCc2ccccc2)[C@H](OCc2ccccc2)[C@@H](OCc2ccccc2)[C@]1(O)CCC (racemic) | 143 |
| O=C1CC(SSSSC2CC(=O)NC2=O)C(=O)N1 (stereo unspecified) | 108 to 114 |
| Cc1cc(CCCOc2c(C)cc(-c3noc(CC(F)(F)F)n3)cc2C)on1 | 84 to 85 |
| C=CCCn1cnc2c1c(=O)[nH]c(=O)n2C | 245 to 246 |
| COC(=O)c1nc(Cl)c(Cl)c(Cl)c1N | 151 to 152 |
| C=CCNC(=O)O[C@H]1C[C@@H](C(=O)OC)[C@]2(C)CC[C@H]3C(=O)O[C@H](c4ccoc4)C[C@]3(C)[C@H]2C1=O | 196 to 199 |
| Clc1ccccc1C1=NOC(c2ccccc2Cl)N1 (stereo unspecified) | 75 to 78 |
| CS(=O)C(C)(O)c1ccc(-c2ccccc2)cc1 (stereo unspecified) | 160 to 162 |
| c1cc(Sc2cccc3cnccc23)c2ccncc2c1 | 138 to 140 |

Now from value to compound:

| melting point [°C] | Structure (SMILES) |
| --- | --- |
| 89 to 91 | CCOC(=O)Oc1ccc(S(=O)(=O)N2c3cc(F)c(F)cc3-n3cccc3C2C)cc1 (stereo unspecified) |
| 76 to 77 | CCCc1cc(Cl)c2oc(Cc3ccc(Cl)cc3)c(C)c2c1O |
| 180 to 181 | COc1ccc(N2CCN(C(=O)c3cn4cc(Cl)ccc4n3)CC2)cc1 |
| 100 to 105 | CCN1C(=O)C(C)(C)C(=O)N(C)c2cc(CN(CCn3cc(C)c4occc4c3=O)Cc3cncn3C)ccc21 |
| 124 to 125 | CCn1cc(-c2ccccc2)c(=O)c(-c2ccccc2)n1 |
| 193 to 196 | Cc1cc(C)c(/C=C2\C(=O)N(C(=O)CNC(=O)OCc3ccccc3)c3ccccc32)[nH]1 |
| 169 to 171 | CCOC(=O)c1cc2n(c1)CNc1ccc(Br)cc1-2 |
| 93 | O=C(c1ccc(F)c(Cl)c1)c1ccc(F)c(Cl)c1 |
| 166 | O=C(O)CCCc1cc2cc(Cl)ccc2n1S(=O)(=O)c1ccc2ccccc2c1 |
| 73 to 75 | CCOC(=O)C(=O)C1COc2ccccc2C1=O (stereo unspecified) |
| 110 to 112 | COc1ccc2c(cc(C)n2-c2ncnc3cc(Cl)ccc23)c1CC(=O)O |
| 229 to 230 | Cc1nnsc1C(=O)c1[nH]c2ccc(Cl)cc2c1CC(=O)O |
| 198 to 200 | O=C(Nc1cccc(-c2ccnc3c(C(=O)c4cccs4)cnn23)c1)c1ccccn1 |
| 187 to 192 | O=C(CC[C@H]1CC[C@H](Nc2ncc3ncnc(Nc4ccc(F)c(Cl)c4)c3n2)CC1)N1CCCC1 |
| 113 to 134 | Cc1ccc(S(=O)(=O)n2ccc3c(CBr)cccc32)cc1 |
| 228 to 232 | O=C(O)C(c1ccccc1)N1C(=O)c2cc(Cl)c(Cl)cc2C1=O (stereo unspecified) |
| 101 to 104 | CCOC(=O)[C@H](Cc1ccc(-c2c(OC)cc(CO)cc2OC)cc1)NC(=O)c1c(F)cccc1Cl |
| > 260 | O=C(Nc1ccc2[nH]c(=O)[nH]c2c1)C(=O)N1CCC(Cc2ccccc2)CC1 |
| 120 to 125 | CS(=O)(=O)NC1CCC(=O)N2CCCC(C(=O)NC(CC(=O)O)C(=O)COc3cccnc3)N2C1=O (stereo unspecified) |
| 228 to 229 | CN1C(=O)SC(Cc2ccc(NC(=O)/C=C/c3cnn(C)c3-c3ccc(F)cc3)cc2)C1=O (stereo unspecified) |

| melting point [°C] | Structure (SMILES) |
| --- | --- |
| 178 to 180 | O=c1c2c(n(-c3ccccc3)c3ncccc13)OC(CI)C2 (stereo unspecified) |
| 159 to 160 | O=C(Nc1nnc(C2CC2)o1)C(c1ccccc1)c1ccccc1 |
| 115 to 117 | CC(O)c1cccc(OCc2cccc(C(=O)O)c2)c1 (stereo unspecified) |
| 128 to 132 | CNC(=S)C1(c2cccc([N+](=O)[O-])c2)CCCCC1=O (stereo unspecified) |
| 63 | CCOC(=O)c1cc2n(n1)CCOC2 |
| > 350 | O=C1c2cccc3c4c(cc(c23)C(=O)N1O)OCOC4 |
| 204 to 205 | C#CCN(Cc1cc2c(=O)n(C)c(COS(C)(=O)=O)nc2cc1Cl)c1ccc(C(=O)OC(C)(C)C)cc1 |
| 105 to 125 | O=C1CC=C2N1CCN1C(=O)C[C@H]3CCCC[C@]231 (relative stereo) |
| 187 to 189 | N=C(N)N1CC(c2ccccc2)C(c2ccc(Cl)cc2)=N1 (stereo unspecified) |
| 118 to 121 | O=c1oc(=O)n(CC2CC2)c2ccccc12 |
| 232 to 234 | CC(=O)NC[C@H]1CN(c2cc(F)c(N3CCC(n4nnc(N5CCOCC5)n4)CC3)c(F)c2)C(=O)O1 |
| 148 to 149 | CC1(CNc2ccccc2)SC2C(NC(=O)Cc3ccccc3)C(=O)N2C1C(=O)OCC(Cl)(Cl)Cl (stereo unspecified) |
| 158 to 160 | C[C@@H](Oc1cccc(F)c1N)[C@H](NC(=O)OC(C)(C)C)C(=O)O |
| 172 to 173 | C#CCOc1cc(C(=O)O)cc(N)c1-c1ccccc1 |
| 164 to 165 | O=C(Cc1ccccc1Nc1c(Cl)cccc1Cl)NO |
| 165 to 167 | COc1ccc(N2C(=O)Cc3ccccc32)cc1Cl |
| 192 to 194 | Cc1nc2ncnn2c2c1CCN2c1c(Cl)cccc1Cl |
| 87 to 89 | Cc1ccc(C(=O)c2ccccc2C2=NCCN2C(C)C)cc1 |
| > 250 | CC1(C)C=Cc2c(O)cc(-c3cc4ccc(O)cc4o3)cc2O1 |
| 77 | CCCCCCCNC(=O)Nc1cccc(N(C)C)c1C(=O)NC1CCN(C(c2ccccc2)c2ccccc2)CC1 |

| melting point [°C] | Structure (SMILES) |
| --- | --- |
| 160 to 164 | O=C(OCC(=O)N1CCCCC1)c1ccc(O)cc1 |
| 84 to 86 | CC(=O)CC(=O)NCc1ccccc1 |
| 111 to 113 | CCCOc1ccc(-c2csc(-c3ccccc3Cl)c2CC(=O)N=C(N)N)cc1 |
| 238 to 240 | CCn1cc(C(=O)O)c(=O)c2cc(F)c(N3CCN(C)C(c4cccs4)C3)cc21 (stereo unspecified) |
| 191 to 193 | Cc1ccsc1C=C1CCc2cc(OCCc3c[nH]cn3)ccc2C1=O |
| 216 | O=C1OC(c2ccccc2)C2CCc3cc(O)ccc3N12 (stereo unspecified) |
| > 300 | O=C1NC(=O)/C(=C/c2cn(-c3ccccc3)nc2OCc2ccccc2)S1 |
| 160 | CNC(=O)c1ccccc1Nc1nc(Nc2c(OC)ccc3c2CCOC(=O)N3C)ncc1Cl |
| 161 to 164 | O=C(c1ccccc1)c1c[nH]nc1-c1cccc(Cl)c1 |
| > 260 | N#Cc1cc(-c2ccc(Cl)cc2Cl)c[nH]c1=O |
| 207 to 208 | CCCCCS(=O)(=O)NC(=O)c1ccc2nc(C)n(Cc3ccc(N(C)C(=O)C(C)(C)C)cc3Cl)c2n1 |
| 205 to 206 | COc1cc(C=C2N=C(C)OC2=O)ccc1OC(C)=O |
| 55 to 57 | COC(=O)c1sc(Cl)nc1-c1ccccc1 |
| 178 to 180 | CCOC(=O)CNC(=O)c1nc2ccc(NCCCN3CCC(OC(c4ccccc4)c4ccccc4)CC3)nn2c1Cl |
| 232 | COc1cc(N)ccc1CN1C(=O)C(C)(c2ccccc2Cl)c2cc(Cl)ccc21 (stereo unspecified) |
| 71 to 73 | COc1cc(C(C)C)c2c(c1)S(=O)(=O)N(COC(=O)c1cccc(O)c1)C2=O |
| 136 | COc1ccc(S(=O)(=O)N(Cc2nnnn2C)c2ccc(Cl)cc2Cc2c(F)cccc2F)cc1OC |
| 127 to 137 | COc1c(Cl)cc(C(=O)O)c2cccc(S(=O)(=O)N(C)C)c12 |
| 230 | Cc1nc(Cl)c2c(c1O)COC2c1ccccc1 (stereo unspecified) |
| 219 to 221 | CCCc1nn(C)c2c1N=C(c1cc(/C=C/C(=O)N(C)C)ccc1OCC)NC2 |
